Holding throughout (assay): relative viability (nuclei count vs DMSO), 5 days (fraction); higher = more cells survive
Compound in test [1]: C[C@]1(O)C[C@@H](c2nc(-c3ccc4ccc(-c5ccccc5)nc4c3)c3c(N)nccn32)C1 [Linsitinib] + CC(=O)Nc1cccc(-n2c(=O)n(C3CC3)c(=O)c3c(Nc4ccc(I)cc4F)n(C)c(=O)c(C)c32)c1 [Trametinib] (partner 0.02 µM)
The method in brief:
(§1)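 Lung cancer cell lines were seeded in 1536-well plates and dosed by pin tool the next day, with either a single drug or a fixed anchor-drug dose combined with five library-drug doses (not always all listed) spaced in √10 steps. Five days later, one step fixed the cells and stained their nuclei (final 0.05% Triton X-100, 1% formaldehyde, 1 ug/ml Hoechst), and nuclei were counted on 4× images. Relative viability is the nuclei count in treated wells divided by the count in vehicle wells, and each value is the median of duplicate plates.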

Compound in test [2]: Cc1ccc(C(=O)N(CCCN)[C@@H](c2nc3cc(Cl)ccc3c(=O)n2Cc2ccccc2)C(C)C)cc1 [Ispinesib] + CCNC(=O)c1noc(-c2cc(C(C)C)c(O)cc2O)c1-c1ccc(CN2CCOCC2)cc1 [Luminespib] (partner 0.01 µM)
In a few lines: as §1

Compound in test [3]: Cc1ccc(C(=O)N(CCCN)[C@@H](c2nc3cc(Cl)ccc3c(=O)n2Cc2ccccc2)C(C)C)cc1 [Ispinesib] + O=C(CCCCCCC(=O)Nc1ccccc1)NO [Vorinostat] (partner 1 µM)
In a few lines: as §1

Compound in test [4]: C[C@]1(O)C[C@@H](c2nc(-c3ccc4ccc(-c5ccccc5)nc4c3)c3c(N)nccn32)C1 [Linsitinib] + COc1cccc2cc(-c3nc([C@H]4CC[C@H](C(=O)O)CC4)n4ncnc(N)c34)[nH]c12 [OSI-027] (partner 0.5 µM)
In a few lines: as §1

Turning to UMC-11, the relative viability stood at 0.72 in test [1] (first compound 0.01 µM); 0.76 in test [1] (first compound 0.03162 µM); 0.7 in test [1] (first compound 0.1 µM); 0.211 in test [1] (first compound 0.3162 µM); 0.471 in test [1] (first compound 1 µM); 0.919 in test [2] (first compound 0.001 µM). In addition, the relative viability in test [2] (first compound 0.003162 µM) came out at 1.02; in test [2] (first compound 0.01 µM) it was 1.05; in test [2] (first compound 0.03162 µM), 0.451; in test [2] (first compound 0.1 µM) it was 0.323; in test [3] (first compound 0.001 µM) it was 0.308; in test [3] (first compound 0.003162 µM), 0.459. In addition, the relative viability in test [3] (first compound 0.01 µM) was found to be 0.327; in test [3] (first compound 0.03162 µM), 0.281; in test [3] (first compound 0.1 µM) it was 0.319; in test [4] (first compound 0.01 µM), 0.468; in test [4] (first compound 0.03162 µM), 0.433; in test [4] (first compound 0.1 µM), 0.552. In test [4] (first compound 1 µM), the relative viability came out at 0.432.

The record behind these values is the supplement of paper PMC10307832.
